Results as given in patent US8062860B2, “Kit for measuring in vivo mutation frequency at an endogenous gene locus” (Litron Laboratories, Ltd., priority 2006, dated 2011).
Entries after “also recorded” stand apart in the source; their conditions may differ.

Columns and labels:
pig-a gene [1] = assay: pig-a mutant erythrocyte frequency measured with and without aerolysin selective lysis, using counting beads (Example 3); assay type: in vivo, Sprague-Dawley rat; conditions: female rats; ENU 100 mg/kg/day or DMBA 40 mg/kg/day on three days; blood 6 weeks thereafter; vs untreated; FIG. 5
Protocol: Blood samples are obtained and processed (labeling with fluorochromes) as described above. Specimens were subsequently divided to provide pig-a mutant erythrocyte frequency measurements made with and without the use of aerolysin. To each of the samples, a small volume of high density microsphere suspension is added. Preferably, between about 10^3 to about 10^6 microspheres/specimen are added. Suitable microspheres are commercially available from a number of sources, including Becton Dickinson, Molecular Probes, and Polysciences. After mixing each sample to ensure a homogeneous suspension, a small aliquot of each cell/microsphere solution is transferred to a tube containing a balanced salt solution such that the resulting dilution yields a density of beads and cells which is low enough so that the rate of particles passing through the detection device yields accurate measurements (e.g., less than about 7,000 events per second for a Becton Dickinson FACSCalibur; higher densities may lead to excessive coincidence, which is multiple particles simultaneously at the fluid stream-laser beam intersection). The other (undiluted) specimen is treated with aerolysin to lyse the majority of non-mutant erythrocytes and reticulocytes. Reticulocyte:bead ratios are measured for both diluted and undiluted/aerolysin-treated samples using, e.g., an optical detection system of the type described above. From these ratios, it is possible to calculate the frequency of mutant reticulocytes per 10^6 reticulocytes.
For example, a small volume of a bead stock suspension (10 μl) is added to a suspension of high density cells that have been stained for a mutation frequency determination (1 ml). A small fraction of the cell/bead suspension is then transferred to a tube containing an isotonic solution such that the resulting density of beads and cells is low enough to prevent excessive coincidence. Flow cytometric analysis then allows for determination of the reticulocyte to bead ratio; for example 7,500 reticulocytes and 100 beads would indicate a ratio of 75 reticulocytes per bead. The aerolysin-treated specimen (with a majority of non-mutant erythrocytes and reticulocytes lysed due to aerolysin) is subsequently analyzed. Even while the majority of erythrocytes and reticulocytes have been lysed, it is still possible to analyze 10^6 or more “virtual reticulocytes” by setting the stop mode so that the proportionate number of beads (which are unaffected by aerolysin) have been interrogated. In this example, the stop mode would be set so that data accumulate until 10^6 divided by 75 beads have been acquired, i.e., 13,333 beads. In this manner, it is possible to score the number of mutant reticulocytes per 13,333 beads, or in other words, per 10^6 virtual reticulocytes. […]

pig-a gene [2] = assay: mutant erythrocytes versus mutant reticulocytes, FSC and FL1 thresholding (Example 5); assay type: in vivo, rat; conditions: rats, 100 mg ENU/kg/day or 40 mg DMBA/kg/day three times in one week; 4 weeks post-exposure; vs untreated; FIG. 7
Text: In practice, this means the mutation frequency for entire erythrocyte population and a mutation frequency for the reticulocyte fraction can each be efficiently determined by analyzing each stained blood specimen two times: once at high density with FL1 thresholding, and a second time upon dilution using a FSC threshold setting. In this manner it is possible to efficiently interrogate enough cells (e.g. 10^6 reticulocytes and also 10^6 total erythrocytes) for accurate measures of mutant frequency (see FIGS. 4A-B).
For this experiment, rats were untreated, or exposed to 100 mg ENU/kg/day or 40 mg DMBA/kg/day. These exposures were performed three times in one week (M, W, F). Blood was collected from the tail vein of these animals 4 weeks post-exposure. Blood samples were stained according to the present invention. Specifically, high density blood specimens were contacted with anti-CD59-PE to differentially label mutant and non-mutant erythrocytes, and biotinylated anti-CD61 followed by streptavidin-Cy5-PE as a platelet-specific label used to exclude these particles from analysis. After a washing steps to remove unbound antibodies and streptavidin-Cy5-PE, cells were resuspended in a thiazole orange solution (0.1 μg/ml) and allowed to incubate at room temperature for about 30 minutes. Specimens were placed on ice and protected from light until flow cytometric analysis (within about 4 hours). Cells were analyzed at low density with FSC thresholding, and also at high density with FL1 thresholding. As described in Example 2, this provided mutant frequencies in both the total erythrocyte and the reticulocyte populations.

pig-a gene [3] = assay: three-color flow cytometric scoring of pig-a mutant (CD59-negative) erythrocytes in blood of treated rats (Example 1); assay type: in vivo; conditions: rat, 100 mg/kg/day for three days at 48 hr intervals; blood several weeks after final administration; FIG. 3E
Protocol: Whole blood specimens (EDTA as anticoagulant) were obtained from the tail vein of vehicle- or ethyl-N-nitrosourea (ENU) treated rats (100 mg/kg/day for three days at 48 hr intervals; blood collected several weeks after the final administration). […] Thereafter, cells were contacted with anti-CD59-PE to differentially label mutant and non-mutant erythrocytes, and biotinylated anti-CD61 followed by streptavidin-Cy5-PE as a platelet-specific label used to exclude these particles from analysis. After washing steps to remove unbound antibodies and unbound streptavidin-Cy5-PE, cells were resuspended in a thiazole orange solution (0.1 μg/ml). Specimens were incubated at room temperature for about 30 minutes, and thereafter were placed on ice until flow cytometric analysis occurred (within about 4 hours).
As shown by FIGS. 3A-E, the labeling procedure was able to successfully discriminate mature erythrocytes and reticulocytes from other cell types, as well as from platelets. Furthermore, it was capable of providing high fluorescent resolution between CD59-negative and CD59-positive erythrocytes, thus facilitating quantification of mutant erythrocyte frequency.
The flow cytometry data acquisition/analysis software (CellQuest v3.3) allowed for configuring alternative gating strategies.

pig-a gene [4] = assay: time course of CD59-negative reticulocyte frequency with FL1 thresholding (Example 4); assay type: in vivo, Sprague Dawley rat
Text: In this case, it is possible to set the threshold parameter to the nucleic acid dye-associated fluorescence channel (e.g., FL1 for thiazole orange), as opposed to the more common forward scatter trigger. When set sufficiently high (that is, above the fluorescence intensity of mature erythrocytes), this can restrict analysis to reticulocytes.
Rather, it must be coupled with the preparation of very high density specimens. When these two adjustments are made, much quicker data acquisition rates are achieved. For instance, by eliminating mature erythrocytes with an FL1 threshold and analyzing specimens prepared at very high cell densities (for example 3×10^8/ml), it is possible to reduce the time needed to acquire 10^6 reticulocytes from 80 minutes to about 5 to 15 minutes.
The use of serial blood specimens also facilitated an assessment of the influence of blood harvest time. For this experiment, Sprague Dawley rats were treated with either vehicle or […] on three days (M, W, F). Blood was collected from the tail vein of these animals before treatment and over a 5 week post-exposure period. After two washing steps, high density blood samples were stained according to the present invention. […] Cells were analyzed according to the FL1 thresholding technique described in Example 2.

SMILES | mutant erythrocyte (CD59-negative) frequency, analysis with aerolysin to enrich for mutants (pig-a gene [1]) | mutant erythrocyte (CD59-negative) frequency, analysis without aerolysin (pig-a gene [1]) | frequency of CD59-negative erythrocytes (total erythrocyte population) (pig-a gene [2]) | frequency of CD59-negative reticulocytes (pig-a gene [2]) | frequency of mutant (CD59-negative) erythrocytes (pig-a gene [3]) | CD59- (mutant) reticulocyte frequency (pig-a gene [4]; rats, 100 mg ENU/mg/day on three days, 5 week post-exposure period, three animals, vs vehicle, FIG. 6) | time of maximal mutant reticulocyte frequency (pig-a gene [4]; two of the three ENU-treated animals (E2 and E3), animal E1 continued to rise through week 5) [week]
Cc1c2ccccc2c(C)c2c1ccc1ccccc12 [DMBA, 7,12-dimethyl-1,2-benz[a]anthracene] | significant increases | significant increases | greatly elevated | greatly elevated |  |  | 
CCN(N=O)C(N)=O [ENU, ethyl-N-nitrosourea] | significant increases | significant increases | greatly elevated | greatly elevated | relatively high frequency of mutant erythrocytes | greatly elevated; also recorded: markedly elevated | 4
